Reference: patent publication US9085576B2 (AMGEN INC., priority 2013, dated 2015)

How the values were obtained:
[1] = biological target: Beta Secretase enzyme (BACE) (Homo sapiens (Human), UniProt P56817); assay: In vitro enzymatic BACE FRET assay; type: biochemical; details: read-out: BACE1 Enzyme assay IC50
Cathepsin D (Cat D) = Cathepsin D (Cat D) (Homo sapiens (Human), UniProt P07339); assay: In vitro enzymatic Cathepsin D (Cat D) FRET assay; type: biochemical; details: read-out: CatD IC50
BACE = BACE (Homo sapiens (Human), UniProt P56817); assay: In vitro BACE cell-based assay (Aβ40 in conditioned medium, sandwich ELISA)
Sequence of BACE (P56817 46-501, species assumed): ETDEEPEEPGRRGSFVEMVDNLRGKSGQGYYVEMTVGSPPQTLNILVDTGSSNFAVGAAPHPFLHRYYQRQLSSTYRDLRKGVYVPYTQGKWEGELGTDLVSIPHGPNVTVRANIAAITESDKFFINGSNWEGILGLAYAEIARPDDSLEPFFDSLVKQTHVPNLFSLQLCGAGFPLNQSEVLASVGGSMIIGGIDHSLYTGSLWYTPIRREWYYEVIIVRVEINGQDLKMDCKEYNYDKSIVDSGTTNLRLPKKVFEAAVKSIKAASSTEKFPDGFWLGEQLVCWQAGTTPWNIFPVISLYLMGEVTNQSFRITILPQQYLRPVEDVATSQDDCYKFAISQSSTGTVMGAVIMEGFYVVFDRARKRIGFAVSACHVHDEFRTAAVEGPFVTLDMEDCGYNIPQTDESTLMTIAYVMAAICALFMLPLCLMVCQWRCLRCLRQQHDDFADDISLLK

Sequence of Beta Secretase enzyme (BACE) (P56817 46-501): as the sequence (P56817 46-501, species assumed) above
Sequence of Cathepsin D (Cat D) (P07339 65-412, species assumed): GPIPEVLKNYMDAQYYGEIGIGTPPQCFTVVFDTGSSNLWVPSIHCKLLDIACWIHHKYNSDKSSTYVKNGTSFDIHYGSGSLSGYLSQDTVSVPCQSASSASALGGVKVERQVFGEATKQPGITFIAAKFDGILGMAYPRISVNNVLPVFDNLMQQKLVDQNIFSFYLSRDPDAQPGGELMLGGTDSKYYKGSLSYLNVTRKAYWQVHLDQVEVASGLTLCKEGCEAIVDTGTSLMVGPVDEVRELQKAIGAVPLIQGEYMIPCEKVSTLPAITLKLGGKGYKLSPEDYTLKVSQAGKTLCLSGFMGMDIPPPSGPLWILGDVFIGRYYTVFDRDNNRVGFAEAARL

IC50 [1] [µM]	IC50 (Cathepsin D (Cat D)) [µM]	IC50 (BACE) [µM]	Structure (SMILES)
0.0218	77.5	0.603	NC1=N[C@@](c2cc(NC(=O)c3ccc(OCC#CC4CC4)cn3)ccc2F)(C(F)F)[C@H]2C[C@H]2O1 [Example 250, N-(3-((1R,5S,6R)-3-amino-5-(difluoromethyl)-2-oxa-4-azabicyclo[4.1.0]hept-3-en-5-yl)-4-fluorophenyl)-5-((3-cyclopropylprop-2-yn-1-yl)oxy)picolinamide]
0.0362	662	0.0151	Cc1cc(C#N)cnc1C(=O)Nc1cc(F)c(Cl)c([C@@]2(CF)N=C(N)O[C@@H]3C[C@@H]32)c1 [Example 138, N-(3-((1R,5S,6R)-3-amino-5-(fluoromethyl)-2-oxa-4-azabicyclo[4.1.0]hept-3-en-5-yl)-4-chloro-5-fluorophenyl)-5-cyano-3-methylpicolinamide]
0.0022	1830	0.0006	CC#CCOc1cnc(C(=O)Nc2ccc(Cl)c([C@@]3(CF)N=C(N)O[C@@H]4C[C@@H]43)c2)cn1 [Example 285, N-(3-((1R,5S,6R)-3-amino-5-(fluoromethyl)-2-oxa-4-azabicyclo[4.1.0]hept-3-en-5-yl)-4-chlorophenyl)-5-(but-2-yn-1-yloxy)pyrazine-2-carboxamide]
0.05	351	0.247	Cc1nc(OCC(F)(F)F)cnc1C(=O)Nc1ccc(F)c([C@@]2(C(F)F)N=C(N)O[C@@H]3C[C@@H]32)c1 [Example 120, N-(3-((1R,5S,6R)-3-amino-5-(difluoromethyl)-2-oxa-4-azabicyclo[4.1.0]hept-3-en-5-yl)-4-fluorphenyl)-3-methyl-5-(2,2,2-trifluoroethoxy)pyrazine-2-carboxamide]
> 13.7	128	> 16	N#Cc1cnc2c(Nc3cc(F)c(F)c([C@]4(C(F)F)N=C(N)O[C@H]5C[C@H]54)c3)ncc(F)c2c1 [Example 366, 8-((3-((1S,5R,6S)-3-amino-5-(difluoromethyl)-2-oxa-4-azabicyclo[4.1.0]hept-3-en-5-yl)-4,5-difluorophenyl)amino)-5-fluoro-1,7-naphthyridine-3-carbonitrile]
0.145	> 400	0.865	NC1=N[C@@](c2cc(NC(=O)c3cnc(OCC4CCOC4)cn3)ccc2F)(C(F)F)[C@H]2C[C@H]2O1 (mixture of isomers) [Example 413]
0.0296	170	0.301	NC1=N[C@@](c2cc(NC(=O)c3cnc(C#CC4CC4)cn3)ccc2F)(C(F)F)[C@H]2C[C@H]2O1 [Example 407, N-(3-((1R,5S,6R)-3-amino-5-(difluoromethyl)-2-oxa-4-azabicyclo[4.1.0]hept-3-en-5-yl)-4-fluorophenyl)-5-(cyclopropylethynyl)pyrazine-2-carboxamide]
> 40	1020	> 15.6	CC#Cc1cncc(-c2ccc(F)c([C@]3(C(F)F)N=C(N)O[C@H]4C[C@H]43)c2)c1 [Example 430]
0.167	1780	0.0701	Cc1c(C(=O)Nc2ccc(F)c([C@]3(C(F)F)N=C(N)O[C@H]4C[C@H]43)c2)nc2ccc(Cl)cn12 (racemic) [Example 61, N-(3-([1(R,S),5(S,R),6(R,S)]-3-amino-5-(difluoromethyl)-2-oxa-4-azabicyclo[4.1.0]hept-3-en-5-yl)-4-fluorophenyl)-6-chloro-3-methylimidazo[1,2-a]pyridine-2-carboxamide]

Structure (SMILES)	IC50 [1] [µM]	IC50 (Cathepsin D (Cat D)) [µM]	IC50 (BACE) [µM]
COc1cnc2c(Nc3ccc(Cl)c([C@@]4(CF)N=C(N)O[C@@H]5C[C@@H]54)c3)nccc2c1 [Example 360, (1R,5S,6R)-5-(2-chloro-5-((3-methoxy-1,7-naphthyridin-8-yl)amino)phenyl)-5-(fluoromethyl)-2-oxa-4-azabicyclo[4.1.0]hept-3-en-3-amine]	1.26	843	0.139
